Where “and” joins values, the source holds several entries; their conditions need not be identical. Identical values can stand only once.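 Where inhibition never reached the appropriate level, the endpoint shown equals the highest concentration tested. Otherwise, values were interpolated linearly from a five-concentration, 48-hour dose response in 96-well plates. At the GI50, growth is halved. TGI denotes the concentration required for complete inhibition of growth.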 Where a SMILES comes first, the peptide text is derived from it. Bridges are numbered along the chain shown (N, C = ends). [ ]: non-standard residue; d: D form. aThr = C[C@H](O)[C@H](N)C(=O)O
How the values were obtained:
Assay in all cases: NCI tumour cell line growth inhibition, 48 h
SW-620 colon = test system: SW-620 colon
A549 NSCLC = test system: A549 NSCLC
MDA-MB-231 breast = test system: MDA-MB-231 breast
A498 renal = test system: A498 renal
UO-31 renal = test system: UO-31 renal
NCI-H226 lung = test system: NCI-H226 lung
HS 578T breast = test system: HS 578T breast
OVCAR-5 ovarian = test system: OVCAR-5 ovarian
SN12C renal = test system: SN12C renal
SNB-75 CNS = test system: SNB-75 CNS

SMILES | GI50 (SW-620 colon) [µM] | TGI (SW-620 colon) [µM] | GI50 (A549 NSCLC) [µM] | TGI (A549 NSCLC) [µM] | TGI (MDA-MB-231 breast) [µM] | TGI (A498 renal) [µM] | GI50 (UO-31 renal) [µM] | TGI (UO-31 renal) [µM] | GI50 (NCI-H226 lung) [µM] | TGI (NCI-H226 lung) | TGI (HS 578T breast) [µM] | GI50 (OVCAR-5 ovarian) [µM] | TGI (OVCAR-5 ovarian) [µM] | GI50 (SN12C renal) [µM] | TGI (SN12C renal) [µM] | TGI (SNB-75 CNS) [µM] | GI50 (SNB-75 CNS) [µM] | GI50 (MDA-MB-231 breast) [µM] | GI50 (HS 578T breast) [µM] | GI50 (A498 renal) [µM]
COC12C(COC(=O)NCCO)C3=C(C(=O)C(C)=C(N)C3=O)N1CC1NC12 (stereo not drawn) | 26.7 | 110 | 29.7 | > 264 | > 264 | 122 | > 264 | > 264 | 30.2 | 71 µM and 150 µM | > 264 | 78.1 | > 264 | 34.4 | > 264 | – | – | – | – | –
Nc1nc(=S)c2c(ncn2CCO)[nH]1 | – | > 100 | – | > 100 | – | > 100 | – | > 100 | – | > 100 µM | – | – | > 100 | – | > 100 | > 100 | – | – | – | –
O=[N+]([O-])c1ccc(-c2ccc(C3=Nn4c(CNc5ccccc5Cl)nnc4SC3)o2)cc1 | – | > 100 | – | > 100 | – | – | – | > 100 | – | > 100 µM | – | – | > 100 | – | > 100 | > 100 | – | – | – | –
CC1NOC(=O)C1N=Nc1ccc(Cl)cc1Cl (stereo not drawn) | – | 21.2 | – | 65.9 | – | 99.5 | – | 51 | – | 63.4 µM | – | – | > 100 | – | 49.1 | 46.5 | – | – | – | –
CC(=O)Nc1ccc(C2CC(c3ccc([N+](=O)[O-])cc3)=Nc3ccccc3S2=O)cc1 (stereo not drawn) | – | 62.4 | – | > 100 | – | – | – | 46.5 | – | 64.5 µM | – | – | > 100 | – | 72.2 | > 100 | – | – | – | –
N#CC1CC(c2ccccc2)Nc2cc(Cl)ccc2N1 (stereo not drawn) | – | > 100 | – | > 100 | – | > 100 | – | > 100 | – | > 100 µM | – | – | > 100 | – | > 100 | > 100 | – | – | – | –
CCc1cccc(CC)c1NC(=O)/C(Cl)=C(/Cl)C(=O)O | – | 46.8 | – | > 89.6 | – | > 100 | – | 47.3 | – | > 100 µM | – | – | > 100 | – | 45.9 | > 81.6 | – | – | – | –
CCOC(=O)C1=C(NC)OCC1=O | – | > 100 | – | > 100 | – | > 100 | – | > 100 | – | > 100 µM | – | – | > 100 | – | > 100 | > 100 | – | – | – | –
COc1cc(-c2nccc3[nH]c(-c4ccc5cc[nH]c5c4)nc23)cc(OC)c1OC | < 0.01 | 1.6 | 0.0113 | 1.77 | 1.96 | – | < 0.01 | 2.93 | – | – | 10.3 | 1.3 | 12.1 | < 0.01 | 9.93 | 6.6 | < 0.01 | < 0.01 | < 0.01 | –
O=C1N[C@@H]2CCCC[C@@H]2C12CCCCC2 | – | > 100 | – | > 100 | – | > 100 | – | > 100 | – | > 100 µM | – | – | > 100 | – | > 100 | > 100 | – | – | – | –
Cc1ccc(NC(=O)c2cc(S(=O)(=O)Nc3nnc(-c4ccccc4)c(-c4ccccc4)n3)c(SCc3ccccc3)cc2Cl)cc1 | 25.1 | 55.4 | 18.4 | 34.3 | 42.2 | – | 25.3 | 63.9 | 21.4 | 56 µM | 57.4 | 19.4 | 33.8 | 18.2 | 43.9 | – | – | 19.4 | 25.4 | –
CC(C)C[C@@H]1NC(=O)[C@@H]2CCCN2C(=O)[C@@H]2CCCN2C(=O)[C@H](CC(C)C)NC(=O)[C@H](CO)NC(=O)[C@H](CCCCN)NC(=O)[C@H]([C@H](C)O)NC(=O)[C@@H]2CSSC[C@@H](NC1=O)C(=O)N[C@@H](Cc1ccccc1)C(=O)N1CCC[C@H]1C(=O)N[C@@H](CC(=O)O)C(=O)NCC(=O)N[C@@H](CCCN=C(N)N)C(=O)N2 (cyclo(C[aThr]KSLPPL[dC]FPDGR); disulfide 1-9) | > 50 | > 50 | > 50 | > 50 | > 50 | 33.5 | > 50 | > 50 | > 50 | > 50 µM | > 50 | > 50 | > 50 | > 50 | > 50 | – | – | > 50 | > 50 | 13.2
COc1cc(/C=C2\NC(=O)C(Cc3cc(OC)c(OC)c(C)c3OC)N(C(C)=O)C2=O)c(OC)c(C)c1OC (stereo not drawn) | – | > 100 | – | > 100 | – | > 100 | – | > 100 | – | > 100 µM | – | – | > 100 | – | > 100 | > 100 | – | – | – | –
O=C(NCCc1ccccc1)C1C(=O)C(=O)N(CCc2ccccc2)C1=O (stereo not drawn) | – | > 100 | – | > 100 | – | – | – | > 100 | – | > 100 µM | – | – | – | – | > 100 | > 100 | – | – | – | –
Cc1ccccc1C(CCCO)C(=O)O (stereo not drawn) | – | > 100 | – | > 100 | – | > 100 | – | > 100 | – | – | – | – | > 100 | – | > 100 | > 100 | – | – | – | –
CCCC(=O)CC(C)C(=O)C(=O)NC12CC3CC(CC(C3)C1)C2 (stereo not drawn) | – | > 100 | – | > 100 | – | – | – | > 100 | – | > 100 µM | – | – | > 100 | – | > 100 | > 100 | – | – | – | –

SMILES | GI50 (SW-620 colon) [µM] | TGI (SW-620 colon) [µM] | GI50 (A549 NSCLC) [µM] | TGI (A549 NSCLC) [µM] | TGI (MDA-MB-231 breast) [µM] | TGI (A498 renal) [µM] | GI50 (UO-31 renal) [µM] | TGI (UO-31 renal) [µM] | GI50 (NCI-H226 lung) [µM] | TGI (NCI-H226 lung) | TGI (HS 578T breast) [µM] | GI50 (OVCAR-5 ovarian) [µM] | TGI (OVCAR-5 ovarian) [µM] | GI50 (SN12C renal) [µM] | TGI (SN12C renal) [µM] | TGI (SNB-75 CNS) [µM] | GI50 (SNB-75 CNS) [µM] | GI50 (MDA-MB-231 breast) [µM] | GI50 (HS 578T breast) [µM] | GI50 (A498 renal) [µM]
O=NN(CCCl)C(=O)NC1CCC(CC(=O)O)CC1 (stereo not drawn) | – | > 100 | – | > 100 | – | > 100 | – | > 100 | – | > 100 µM | – | – | > 100 | – | > 100 | > 100 | – | – | – | –
O=C(CCCC(=O)Nc1ccc(Cl)cc1Cl)CC(=O)c1ccc2ccccc2c1 | – | > 100 | – | > 100 | – | – | – | > 100 | – | > 100 µM | – | – | > 100 | – | > 100 | – | – | – | – | –
N#Cc1ccc(Sc2nc3ccccc3[nH]2)cc1 | – | > 100 | – | > 100 | – | – | – | > 100 | – | > 100 µM | – | – | > 100 | – | > 100 | – | – | – | – | –
OC(c1ccccc1Br)(c1ccccc1Br)C(F)(F)F | – | 36.2 | – | > 100 | – | 51.9 | – | 75.1 | – | 26.5 µM | – | – | 70 | – | 38.6 | 85.2 | – | – | – | –
CC(=O)[CH-]C(=O)c1ccccc1.[C-]#[O+].[C-]#[O+].[Ir] | > 100 | > 100 | > 100 | > 100 | – | – | > 100 | > 100 | > 100 | > 100 µM | – | > 100 | > 100 | > 100 | > 100 | > 100 | > 100 | – | – | –
COCCN(CCOC)c1nc(-c2ccccc2)nc2ccccc12 | 33.9 | > 100 | 30.1 | > 100 | > 100 | 89.7 | 28.1 | > 100 | 23.6 | 54 µM | > 100 | 21.9 | 46.3 | 29.1 | > 100 | – | – | 59.4 | 38.8 | 30.1
C(=Nc1nc(SCc2ccccc2)nc2[nH]ncc12)c1cccs1 | 47.2 | > 100 | 60 | > 100 | > 100 | – | 73.8 | > 100 | 45.7 | > 100 µM | – | > 100 | > 100 | > 100 | > 100 | > 100 | > 100 | 37.3 | – | –
CC(=O)OCC(=O)[C@@]1(O)CC[C@H]2[C@@H]3C[C@H](C)C4=CC(=O)C=C[C@]4(C)[C@@]3(F)[C@@H](O)C[C@@]21C | – | > 100 | – | > 100 | – | – | – | > 100 | – | > 100 µM | – | – | > 100 | – | – | > 100 | – | – | – | –
C[C@H](C(=O)O)C(=O)NC(=O)N(Cc1ccccc1)N=O | – | > 100 | – | > 100 | – | > 100 | – | > 100 | – | – | – | – | > 100 | – | > 100 | > 100 | – | – | – | –
COc1ccc(Nc2cnc3cc(N)cc(N)c3n2)cc1 | 21.8 | 52.8 | 26.8 | > 100 | 26.2 | 59.1 | 25.7 | 98.5 | 17.2 | 45.8 µM | 63.3 | – | – | 15.6 | 37 | – | – | 10.5 | 21.9 | 16.9
c1ccc(C(c2ccccc2)c2ccccn2)cc1 | – | > 100 | – | > 100 | – | > 100 | – | > 100 | – | > 100 µM | – | – | > 100 | – | > 100 | > 100 | – | – | – | –
COc1ccc2c(C(=O)O)cc3ccccc3c2c1OC | – | 36.4 | – | > 100 | – | 40.7 | – | 30.9 | – | 71.9 µM | – | – | 38.7 | – | 53.1 | > 100 | – | – | – | –
O=C1C2C3C=CC(C2C(=O)N1CO)C1C2C(=O)N(CO)C(=O)C2C31 (stereo not drawn) | – | > 66.7 | – | > 88.4 | – | > 100 | – | > 100 | – | > 100 µM | – | – | > 100 | – | > 100 | > 100 | – | – | – | –
COc1ccc2nc(NC(=O)C(=O)CC(=O)c3ccc([N+](=O)[O-])cc3)sc2c1 | – | > 100 | – | > 100 | – | > 100 | – | > 100 | – | > 100 µM | – | – | > 100 | – | > 100 | > 100 | – | – | – | –
COC(=O)C1=C(C(=O)OC)C2(c3ccccc3)OC1(c1ccccc1)c1cc3ccccc3cc12 | – | 3.51 | – | 5.32 | – | – | – | 2.77 | – | – | – | – | 3.53 | – | 4.18 | 1.99 | – | – | – | –

— PubChem BioAssay (NCI)
